Measurements reported in patent US20200270576A1, “Ex Vivo Maintenance and Expansion of Stem Cells” (priority 2017, published 2020).

Tests used:
CD150+CD48-LSK HSCs = test: Frequency of CD150+CD48-LSK cells in 10-day HSC cultures; format: cell-based, mouse; conditions: 10 HSCs/well, 10 days culture
Procedure: FIG. 18 depicts that addition of 17-AAG to culture medium increased the frequency of CD150^+CD48^−LSK HSCs in 10-day HSC cultures as compared to controls.
To further test if HSP90 inhibitors promote HSC maintenance/expansion, we cultured purified HSCs (10/well) for 10 days in the presence or absence of 17-AAG, and assessed the frequency of CD150^+CD48^−LSK cells in culture. CD150^+CD48^−LSK cells were about ˜4-fold enriched when 17-AAG was added to the culture medium (FIG. 18). […] Similar results are expected for other HSP90 inhibitors, TRiC inhibitors and agonists of Hsf1.

HSCs [1] = test: TMI fluorescence (unfolded protein abundance) in cultured HSCs; format: cell-based, mouse; conditions: 18 hours in culture
Procedure: FIG. 15 depicts that addition of 17-AAG to culture medium reduced TMI fluorescence (unfolded protein abundance) within cultured HSCs (18 hour cultures shown).
Hsf1 promoted protein homeostasis maintenance in cultured HSCs (FIG. 13B), and 17-AAG promoted Hsf1 accumulation in cultured HSCs (FIG. 14). We thus investigated whether addition of 17-AAG to culture medium could promote protein homeostasis maintenance in HSCs. To test this, HSCs were cultured in the presence or absence (vehicle only; DMSO) of 17-AAG. After 18 hours in culture, we assessed protein homeostasis by quantifying unfolded protein abundance based on TMI fluorescence.

Hsf1 = Hsf1 expression and localization by immunofluorescence in cultured HSCs; format: cell-based, mouse; conditions: 10 days culture; 17-AAG 5 nM, HSF1A 8 uM final concentration
Excerpt: FIG. 14 depicts representative immunofluorescence staining of HSCs cultured for 10 days in the presence or absence of 17-AAG or HSF1A. Addition of 17-AAG or HSF1A to culture medium increased Hsf1 accumulation in the nucleus of cultured HSCs. Hsf1-deficient HSCs and cells stained without primary antibody (Neg Con) are shown as controls.
Since Hsf1 promoted HSC maintenance and protein homeostasis in vitro (FIG. 13), we investigated whether increasing Hsf1 expression or activity would further enhance HSC maintenance. […] Hsf1 can become active as a transcription factor when it translocates to the nucleus. We thus tested whether inhibitors of HSP90 or TRiC would promote Hsf1 accumulation in the nucleus of cultured HSCs by culturing HSCs for 10 days in the presence or absence of 17-AAG (HSP90 inhibitor; 5 nM final concentration) or HSF1A (TRiC inhibitor; 8 uM final concentration), and assessed Hsf1 expression and localization by immunofluorescence.

HSCs [2] = test: Competitive transplantation of HSCs cultured 10 days, with serial transplantation; format: cell-based, murine
Excerpt: FIG. 16A-B depict that HSC functionality is maintained and expanded in vitro by interventions that can induce/activate Hsf1. FIG. 16A depicts donor cell engraftment 16 weeks after transplantation of 10 HSCs cultured for 10 days in the presence or absence of an HSP90 inhibitor (17-AAG) or TRiC inhibitor (HSF1A) or from 10 freshly isolated HSCs. Cells were transplanted with 2×10^5 freshly isolated congenic bone marrow cells (n=3 independent experiments with 3-5 recipients/condition/experiment). […] Addition of either 17-AAG or HSF1A increased the reconstituting potential of cultured HSCs as compared to both control cultured and freshly isolated HSCs.
To test if HSCs depend on Hsf1 for their maintenance in vitro, we conditionally deleted Hsf1 from HSCs, cultured them for 10 days and assessed their long-term multilineage reconstituting activity in competitive transplantation assays. The assay for testing HSC function is to assess their capacity to give long-term (16+ week) multilineage (B cell, T cell and myeloid cell) reconstitution of the blood system of an irradiated transplant recipient. A competitive transplantation assay provides a quantitative readout of HSC regenerative activity.
Modest declines in proteostasis impair HSC maintenance in vivo. […] This raises the possibility that increasing Hsf1 activity could promote HSC maintenance in vitro by enhancing proteostasis capacity. To test if HSP90 inhibitors or TRiC inhibitors promote HSC maintenance in vitro, purified HSCs were sorted from young adult murine bone marrow (CD45.1^+) into 96-well plates (10/well) containing our HSC medium supplemented with 17-AAG or HSF1A. HSCs were cultured for 10 days and competitively transplanted with 2×10^5 freshly isolated congenic bone marrow cells (CD45.2^+) into irradiated mice (CD45.2^+). Recipient mice were bled monthly (for 4 months) to assess levels of donor-derived CD45.1^+ hematopoietic cells. Self-renewal capacity of HSCs was assessed by serially transplanting hematopoietic cells from the primary recipients into secondary irradiated recipients (3×10^6 cells/recipient). […] Similar results are expected for other HSP90 or TRiC inhibitors.
To test if HSP90 inhibitors or TRiC inhibitors enable HSC expansion in vitro, purified HSCs were sorted from young adult bone marrow (CD45.1^+) into 96-well plates (10/well) containing HSC medium supplemented with 17-AAG or HSF1A. HSCs were cultured for 10 days and competitively transplanted with 2×10^5 freshly isolated congenic bone marrow cells (CD45.2^+) into irradiated mice (CD45.2^+). At the same time, 10 freshly isolated HSCs were transplanted with 2×10^5 freshly isolated congenic bone marrow cells into irradiated mice. Recipient mice were bled monthly (for 4 months) to assess levels of donor-derived CD45.1^+ hematopoietic cells. Self-renewal capacity of HSCs was assessed by serially transplanting hematopoietic cells (3×10^6 cells/recipient) into secondary irradiated recipients. […] Similar results are expected for other HSP90 or TRiC inhibitors.

HSCs [3] = test: Retroviral (MSCV-IRES-GFP) transduction of HSCs, GFP in colonies; format: cell-based, mouse; conditions: medium supplemented with 17-AAG; colonies assessed ten days after plating
Procedure: FIG. 19 depicts that addition of 17-AAG to culture medium supported highly efficient genetic modification of HSCs. The frequency of HSCs that were transduced with a GFP encoding retrovirus in culture is shown.
We tested whether the presence of HSP90 inhibitors in cell culture medium permitted efficient genetic modification of HSCs. Purified HSCs were cultured overnight in medium supplemented with 17-AAG. Retroviral supernatant (containing retrovirus encoding MSCV-IRES-GFP) was added two times (two hours apart), and the cells were cultured for an additional 24 hours. After culture, the cells were plated in methylcellulose semi-solid medium supplemented with hematopoietic cytokines. Ten days later, individual colonies (derived from single HSCs) were assessed for GFP expression by flow cytometry. […] We expect this will also be true for other HSP90 inhibitors, TRiC inhibitors and Hsf1 agonists. In addition, we expect that these agents will also be compatible for genetic modification of stem cells by other technologies (in addition to retrovirus), including but not limited to lentivirus, CRISPR and other genetic modification or editing technologies.

[4] = test system: Hsf1-deficient and control HSCs; test: Competitive transplantation of cultured wild-type and Hsf1-deficient HSCs; format: cell-based, mice; conditions: 12 weeks after transplantation
Excerpt: FIG. 17 depicts that Hsf1 is required for 17-AAG and HSF1A to enhance HSC maintenance and expansion in vitro. Donor cell engraftment 12 weeks after transplantation of 10 wild-type and Hsf1-deficient HSCs cultured for 10 days in the presence or absence of 17-AAG, HSF1A or DMSO. Cells were transplanted with 2×10^5 freshly isolated congenic bone marrow cells (n=7-9; *P<0.05, **P<0.01).
We tested whether the positive effects of 17-AAG and HSF1A on HSC maintenance/expansion in vitro were mediated by Hsf1. Purified Hsf1-deficient and control HSCs were sorted from adult bone marrow (CD45.2^+) into 96-well plates (10/well) containing HSC medium supplemented with 17-AAG, HSF1A or vehicle (DMSO). HSCs were cultured for 10 days and competitively transplanted with 2×10^5 freshly isolated congenic bone marrow cells (CD45.1^+) into irradiated mice (CD45.1^+). Recipient mice were bled monthly to assess levels of donor-derived CD45.2^+ hematopoietic cells. […] However, the positive effect of 17-AAG and HSF1A was lost with Hsf1-deficient HSCs (FIG. 17).

In the case of `C=CCNC1=C2C[C@@H](C)C[C@H](OC)[C@H](O)[C@@H](C)/C=C(\C)[C@H](OC(N)=O)[C@@H](OC)/C=C\C=C(/C)C(=O)NC(=CC1=O)C2=O` [17-AAG, 17-N-Allylamino-17-demethoxygeldanamycin], the “enrichment of CD150+CD48-LSK cells vs culture without agent” value (CD150+CD48-LSK HSCs) is reported as ~4 fold, the “TMI fluorescence (unfolded protein abundance) vs vehicle (DMSO) controls” value (HSCs [1]) is reported as “less TMI fluorescence than controls” and the “Hsf1 abundance in the nucleus of cultured HSCs” value (Hsf1) is reported as “increase Hsf1 abundance in the nucleus”. The “donor cell reconstitution vs recipients of freshly isolated HSCs” value (HSCs [2]; 10 HSCs cultured 10 days vs 10 freshly isolated HSCs) was “higher levels of donor cell reconstitution as compared to recipients of freshly isolated HSCs”, the “donor cell reconstitution in primary recipients vs HSCs cultured without agent” value (HSCs [2]; 10 HSCs cultured 10 days, with 2x10^5 congenic bone marrow cells, 16 weeks) was “significantly higher levels of donor cell reconstitution as compared to controls” and the “fraction of recipients with long-term multilineage reconstitution vs HSCs cultured without agent” value (HSCs [2]; primary and secondary transplants, 16 week, >0.5% B-, T-, myeloid cells) was “greater fraction”. The “fraction of recipients with long-term multilineage reconstitution vs freshly isolated HSCs” value (HSCs [2]; secondary transplants) was “significantly greater fraction”, the “donor cell reconstitution in secondary recipients vs HSCs cultured without agent” value (HSCs [2]; serial transplant, 3x10^6 cells/recipient) was “even more pronounced” and the “colonies in which GFP was detected” value (HSCs [3]) was 22/25. For the same compound, the “frequency of GFP-positive colonies (transduced HSCs)” value (HSCs [3]) was 88%, the “donor cell reconstitution vs controls (DMSO), control HSCs” value ([4]; 10 HSCs cultured 10 days) was “higher levels of donor cell reconstitution as compared to controls” and the “positive effect on donor cell reconstitution with Hsf1-deficient HSCs” value ([4]; Hsf1-deficient HSCs cultured 10 days) was “lost”.
